Measurements from patent US20190038759A1 (priority 2017, published 2019).
In brackets after ≈: the same amount, converted by molar mass. Read-outs that look alike come from different tables or passages of the source. Non-standard residues stand in square brackets, D forms with d. Residues, ends and D or L forms follow the SMILES beside them. *: point of attachment. Propyl(3-guanidino) = N=C(N)NCCC*; Hyp = O=C(O)[C@@H]1C[C@@H](O)CN1; Isobutyl = CC(C)C*

Tests used:
[1] = tested on: S. aureus (ATCC 6538) biofilm; experiment: Disruption of established biofilms, crystal violet; format: cell-based
Method: (§1) The compounds of the present disclosure were examined for their ability to disrupt bacterial biofilms using the microtiter dish biofilm formation assay. Briefly, overnight cultures of S. aureus (ATCC 6538) and S. epidermidis (ATCC 35984) were diluted 1:100 in TSB supplemented with 1% glucose. Overnight cultures of P. aeruginosa PAO1 and A. baumannii ATCC BAA-1605 were diluted 1:100 in M63 minimal medium supplemented with magnesium sulfate, glucose and casamino acids. Bacterial suspensions were incubated in 96-well plates at 37° C. for 24 hours. After removing media, wells were rinsed with PBS to remove planktonic bacteria before re-filling wells with fresh media. Compounds were added at specific concentrations and plates were incubated at 37° C. for 24 hours. After incubation, wells were washed and biofilms were stained with 0.5% (w/v) crystal violet for 30 minutes. The dye was solubilized with ethanol (95%) and the biofilm mass was quantified at OD595. Experiments were done in triplicate and repeated twice independently.

[2] = tested on: Methicillin-resistant S. aureus USA400; experiment: MIC against clinical and drug-resistant isolates; format: cell-based; conditions: Staphylococcus aureus; Table 3, MRSA USA400; read-out: Minimum inhibitory concentration (MIC)
Mycobacterium smegmatis [3] = experiment: microbe, parasite or virus in culture; conditions: Mycolicibacterium smegmatis
[4] = tested on: Colistin-resistant P. aeruginosa 1109; experiment: microbe, parasite or virus in culture; format: cell-based; conditions: Table 3, colistin-resistant P. aeruginosa 1109, read-out: Minimum inhibitory concentration (MIC)
[5] = tested on: Staphylococcus aureus (ATCC 25923); experiment: In vitro antimicrobial activity (MIC), OD-based growth; conditions: ATCC25923
Brucella abortus [6] = experiment: microbe, parasite or virus in culture
[7] = tested on: tumor necrosis factor-α (TNF-α); experiment: Anti-inflammatory effect on LPS stimulated macrophages, ELISA; format: cell-based; conditions: 10 μM, LPS 150 ng/ml, J774A.1, six hours
Method: (§2) The anti-inflammatory effect of compounds on LPS stimulated macrophages, J774A.1 cells was investigated. Next, the cells were stimulated with LPS (150 ng/ml final concentration) in the presence of 10 μM of compounds. Cells that were stimulated with LPS alone and untreated cells served as controls. Cells were incubated for six hours at 37° C. and supernatants from each treatment were collected and stored at −20° C. until use. Cytokine detection of tumor necrosis factor-α (TNF-α) and interleukin-6 (IL-6) in supernatants was done using ELISA as described before following the manufacturer's instructions^24,25. Cytokine levels were expressed as percent change relative to the LPS-stimulated control, using triplicate samples for each treatment condition.

interleukin-6 (IL-6) = experiment: as above; format: cell-based; conditions: 10 μM, LPS 150 ng/ml, J774A.1, six hours
Method: as §2

[8] = tested on: Mycobacterium tuberculosis H37Ra; experiment: microbe, parasite or virus in culture
S. aureus (ATCC 6538) = experiment: MIC, biofilm-forming clinical isolate, broth microdilution; format: cell-based; conditions: Staphylococcus aureus, ATCC6538
[9] = tested on: S. epidermidis (ATCC 35984); experiment: as above; format: cell-based; conditions: Staphylococcus epidermidis, ATCC35984
C. elegans = conditions: 50 μM
[10] = tested on: Escherichia coli (ATCC 25922); experiment: In vitro antimicrobial activity (MIC), OD-based growth; conditions: ATCC25922
[11] = tested on: Vancomycin-resistant E. faecium ATCC 700221; experiment: MIC against clinical and drug-resistant isolates; format: cell-based; conditions: Enterococcus faecium, ATCC700221; Table 3, vancomycin-resistant E. faecium ATCC 700221; read-out: Minimum inhibitory concentration (MIC)
Shigella flexneri [12] = experiment: microbe, parasite or virus in culture
P. aeruginosa PAO1 = experiment: MIC against clinical and drug-resistant isolates; format: cell-based; conditions: Pseudomonas aeruginosa; Table 3, P. aeruginosa PAO1; read-out: Minimum inhibitory concentration (MIC)
K. pneumoniae BAA-1706 = experiment: MIC against clinical and drug-resistant isolates; format: cell-based; conditions: Klebsiella pneumoniae, BAA1706; Table 3, K. pneumoniae BAA-1706; read-out: Minimum inhibitory concentration (MIC)
A. baumannii BAA-1605 = experiment: MIC against clinical and drug-resistant isolates; format: cell-based; conditions: Acinetobacter baumannii, BAA1605; Table 3, A. baumannii BAA-1605; read-out: Minimum inhibitory concentration (MIC)
Salmonella enteritidis [13] = experiment: microbe, parasite or virus in culture; conditions: Salmonella enterica
E. coli (ATCC 25922) = format: cell-based; conditions: at five times MIC
[14] = tested on: LPS-induced activation of the LAL enzyme (Limulus amoebocyte lysate); experiment: LPS binding: inhibition of LPS-induced activation of LAL enzyme; format: biochemical; conditions: at 10 (unit not given)
Salmonella enteritidis [15] = tested on: Salmonella enteritidis
Shigella flexneri [16] = tested on: Shigella flexneri
Mycobacterium smegmatis [17] = tested on: Mycobacterium smegmatis
[18] = tested on: intracellular pathogens in J774A.1 cells; format: cell-based; conditions: infected J774A.1 macrophages
[19] = tested on: P. aeruginosa PAO1 biofilm; experiment: Disruption of established biofilms, crystal violet; format: cell-based; conditions: 32 μM
Method: as §1

[20] = tested on: A. baumannii ATCC BAA-1605 biofilm; experiment: Disruption of established biofilms, crystal violet; format: cell-based; conditions: 32 μM
Method: as §1

[21] = tested on: S. epidermidis ATCC 35984 biofilm; experiment: Disruption of established biofilms, crystal violet; format: cell-based; conditions: S. epidermidis mature biofilm, 64 μM
Method: as §1

Brucella abortus [22] = tested on: Brucella abortus
[23] = tested on: Mycobacterium tuberculosis H37Ra

CN[C@H](CC(C)C)C(=O)N[C@H]1C(=O)N[C@@H](CC(N)=O)C(=O)N[C@H]2C(=O)N[C@H]3C(=O)N[C@H](C(=O)N[C@H](C(=O)O)c4cc(O)cc(O)c4-c4cc3ccc4O)[C@H](O)c3ccc(c(Cl)c3)Oc3cc2cc(c3O[C@@H]2O[C@H](CO)[C@@H](O)[C@H](O)[C@H]2O[C@H]2C[C@](C)(N)[C@H](O)[C@H](C)O2)Oc2ccc(cc2Cl)[C@H]1O [vancomycin]
disruption of biofilm mass ([1]; S. aureus mature biofilm, 8 μM): approximately 50%

NC[C@H]1O[C@H](O[C@H]2[C@H](O)[C@@H](O[C@H]3O[C@H](CO)[C@@H](O)[C@H](N)[C@H]3O)[C@H](N)C[C@@H]2N)[C@H](O)[C@@H](O)[C@@H]1O [kanamycin]
MIC [2]: 4 µM (≈ 1.94 µg/mL) | MIC (Mycobacterium smegmatis [3]): 8 µM (≈ 3.88 µg/mL) | MIC ([4]; Pseudomonas aeruginosa): > 256 µM | MIC [5]: 2 µM (≈ 0.969 µg/mL) | MIC (Brucella abortus [6]): 4 µM (≈ 1.94 µg/mL) | decrease of TNF-α levels [7]: 11.41%±4.5 | decrease of IL-6 levels (interleukin-6 (IL-6)): 10%±3.30 | MIC [8]: 2 µM (≈ 0.969 µg/mL) | MIC (S. aureus (ATCC 6538); Table 2, S. aureus clinical isolate that forms biofilms, read-out: MIC): 4 µM (≈ 1.94 µg/mL) | MIC (S. aureus (ATCC 6538); Table 3, S. aureus ATCC 6538, read-out: Minimum inhibitory concentration (MIC)): 2 µM (≈ 0.969 µg/mL) | MIC ([9]; Table 2, S. epidermis clinical isolate that forms biofilms, read-out: MIC): > 128 µM | MIC ([9]; Table 3, S. epidermidis ATCC 35984, read-out: Minimum inhibitory concentration (MIC)): > 256 µM | viability of C. elegans (C. elegans; glp-4(bn2) I, sek-1(km4), Caenorhabditis elegans, in vivo, 3 days): > 90% | MIC [10]: 2 µM (≈ 0.969 µg/mL) | MIC [11]: > 256 µM | MIC (Shigella flexneri [12]): 2 µM (≈ 0.969 µg/mL) | MIC (P. aeruginosa PAO1): > 256 µM | disruption of biofilm mass ([1]; S. aureus mature biofilm, 8 μM): approximately 50% | MIC (K. pneumoniae BAA-1706): 256 µM (≈ 124 µg/mL) | MIC (A. baumannii BAA-1605): 128 µM (≈ 62 µg/mL) | MIC (Salmonella enteritidis [13]): 16 µM (≈ 7.75 µg/mL)

CC[C@H](C)[C@H](NC(=O)CN)C(=O)NCC(=O)N[C@@H](C)C(=O)N[C@H](C(=O)N[C@@H](CC(C)C)C(=O)N[C@@H](CCCCN)C(=O)N[C@H](C(=O)N[C@@H](CC(C)C)C(=O)N[C@H](C(=O)N[C@H](C(=O)NCC(=O)N[C@@H](CC(C)C)C(=O)N1CCC[C@H]1C(=O)N[C@@H](C)C(=O)N[C@@H](CC(C)C)C(=O)N[C@H](C(=O)N[C@@H](CO)C(=O)N[C@@H](Cc1c[nH]c2ccccc12)C(=O)N[C@H](C(=O)N[C@@H](CCCCN)C(=O)N[C@@H](CCCNC(=N)N)C(=O)N[C@@H](CCCCN)C(=O)N[C@@H](CCCNC(=N)N)C(=O)N[C@@H](CCC(N)=O)C(=O)N[C@@H](CCC(N)=O)C(N)=O)[C@@H](C)CC)[C@@H](C)CC)[C@@H](C)O)[C@@H](C)O)C(C)C)C(C)C [melittin]
release of beta-galactosidase from E. coli (E. coli (ATCC 25922)): substantial level of release | viability of C. elegans (C. elegans; after 3 days of treatment): no live worms

CC(=O)NC[C@H]1CN(c2ccc(N3CCOCC3)c(F)c2)C(=O)O1 [linezolid]
disruption of biofilm mass ([1]; S. aureus mature biofilm, 8 μM): approximately 50%

colistin
MIC [4]: 128 µM | decrease of TNF-α levels [7]: 97.53%±0.32 | decrease of IL-6 levels (interleukin-6 (IL-6)): 95.04%±0.56 | inhibition of the LAL enzyme [14]: 79.76%±4.6

CC(C)CO[C@@H]1C[C@@H](C(=O)N2C[C@H](OCCCNC(=N)N)C[C@H]2C(=O)N2C[C@H](OCCCNC(=N)N)C[C@H]2C(=O)N2C[C@H](OCC(C)C)C[C@H]2C(=O)N2C[C@H](OCCCNC(=N)N)C[C@H]2C(=O)N2C[C@H](OCCCNC(=N)N)C[C@H]2C(=O)N2C[C@H](OCC(C)C)C[C@H]2C(=O)N2C[C@H](OCCCNC(=N)N)C[C@H]2C(=O)N2C[C@H](OCCCNC(=N)N)C[C@H]2C(=O)N2C[C@H](OCC(C)C)C[C@H]2C(=O)N2C[C@H](OCCCNC(=N)N)C[C@H]2C(=O)N2C[C@H](OCCCNC(=N)N)C[C@H]2C(=O)N2C[C@H](OCC(C)C)C[C@H]2C(N)=O)N(C(=O)CN)C1 [Example P14LRR] (H-G[Hyp](Isobutyl)[Hyp](Propyl(3-guanidino))[Hyp](Propyl(3-guanidino))[Hyp](Isobutyl)[Hyp](Propyl(3-guanidino))[Hyp](Propyl(3-guanidino))[Hyp](Isobutyl)[Hyp](Propyl(3-guanidino))[Hyp](Propyl(3-guanidino))[Hyp](Isobutyl)[Hyp](Propyl(3-guanidino))[Hyp](Propyl(3-guanidino))[Hyp](Isobutyl)-NH2; N-terminus assumed)
MIC (Salmonella enteritidis [15]): 32 µM (≈ 83.8 µg/mL) | MIC (Shigella flexneri [16]): 8 µM (≈ 20.9 µg/mL) | MIC (Mycobacterium smegmatis [17]): 8 µM (≈ 20.9 µg/mL) | viability at 72 h, 50 µM (in vivo): > 90% | decrease of TNF-α levels [7]: 68.4%±5.43 | decrease of IL-6 levels (interleukin-6 (IL-6)): 81.92%±0.78 | inhibition of the LAL enzyme [14]: 71.2%±5 | clearance of intracellular bacteria [18]: neither kanamycin nor P14LRR is capable of effectively clearing intracellular bacteria | disruption of biofilm [19]: ineffective | disruption of biofilm mass ([1]; S. aureus mature (24 hour) biofilm, 1 μM): not effective | disruption of biofilm mass ([1]; S. aureus mature biofilm, 8 μM): not effective | reduction of biofilm mass [20]: 30% | disruption of biofilm mass [21]: approximately 50% | MIC (Brucella abortus [22]): 16 µM (≈ 41.9 µg/mL) | MIC [23]: 16 µM (≈ 41.9 µg/mL)
